Laboratory results from ChEMBL document CHEMBL1153480, “Study on the potential anti-cancer activity of phosphonium and ammonium-based ionic liquids” (2009).

How the values were obtained:
Type in all cases: functional
OVCAR-5 = assay: cells; settings: Homo sapiens
Description: Growth inhibition of human OVCAR5 cells assessed as drug level required for 50% reduction in net protein increase by SRB assay relative to control

HOP-62 = assay: cells; settings: Homo sapiens
Description: Growth inhibition of human HOP62 cells assessed as drug level required for 50% reduction in net protein increase by SRB assay relative to control

NCI-H522 [1] = assay: cells; settings: Homo sapiens
Description: Growth inhibition of human NCI-H522 cells assessed as cell growth at 10 uM by SRB assay

IGROV-1 [2] = assay: cells; settings: Homo sapiens
Description: Growth inhibition of human IGROV1 cells assessed as drug level required for 50% reduction in net protein increase by SRB assay relative to control

786-0 [3] = assay: cells; settings: Homo sapiens
Description: Growth inhibition of human 786-0 cells assessed as cell growth at 10 uM by SRB assay

EKVX = assay: cells; settings: Homo sapiens
Description: Growth inhibition of human EKVX cells assessed as drug level required for 50% reduction in net protein increase by SRB assay relative to control

SK-MEL-5 = assay: cells; settings: Homo sapiens
Description: Growth inhibition of human SK-MEL-5 cells assessed as drug level required for 50% reduction in net protein increase by SRB assay relative to control

cells [4] = settings: Homo sapiens, Hs-578T; read-out: LC50 (the source's name)
Description: Cytotoxicity against human Hs 578T cells by SRB assay

SN12C = assay: cells; settings: Homo sapiens
Description: Growth inhibition of human SN12C cells assessed as drug level required for 50% reduction in net protein increase by SRB assay relative to control

M14 = assay: cells; settings: Homo sapiens
Description: Growth inhibition of human M14 cells assessed as drug level required for 50% reduction in net protein increase by SRB assay relative to control

OVCAR-8 [5] = assay: cells; settings: Homo sapiens
Description: Growth inhibition of human OVCAR8 cells assessed as cell growth at 10 uM by SRB assay

MDA-MB-468 = assay: Cytotoxicity against human MDA-MB-468 cells by SRB assay; settings: read-out: LC50 (the source's name)
NCI-H23 [6] = assay: Cytotoxicity against human NCI-H23 cells by SRB assay; settings: read-out: LC50 (the source's name)
U-251 = assay: cells; settings: Homo sapiens
Description: Growth inhibition of human U251 cells assessed as drug level required for 50% reduction in net protein increase by SRB assay relative to control

HOP-92 = assay: cells; settings: Homo sapiens
Description: Growth inhibition of human HOP92 cells assessed as cell growth at 10 uM by SRB assay

IGROV-1 [7] = assay: Cytotoxicity against human IGROV1 cells by SRB assay; settings: read-out: LC50 (the source's name)
SF-295 [8] = assay: cells; settings: Homo sapiens
Description: Growth inhibition of human SF295 cells assessed as cell growth at 10 uM by SRB assay

NCI-H23 [9] = assay: cells; settings: Homo sapiens
Description: Growth inhibition of human NCI-H23 cells assessed as cell growth at 10 uM by SRB assay

BT-549 = assay: cells; settings: Homo sapiens
Description: Growth inhibition of human BT549 cells assessed as drug level required for 50% reduction in net protein increase by SRB assay relative to control

T47D = assay: cells; settings: Homo sapiens
Description: Growth inhibition of human T47D cells assessed as cell growth at 10 uM by SRB assay

SNB-75 [10] = assay: Cytotoxicity against human SNB75 cells by SRB assay; settings: read-out: LC50 (the source's name)
PC-3 [11] = assay: cells; settings: Homo sapiens
Description: Growth inhibition of human PC3 cells assessed as drug level required for 50% reduction in net protein increase by SRB assay relative to control

TK-10 [12] = assay: cells; settings: Homo sapiens
Description: Growth inhibition of human TK10 cells assessed as drug level required for 50% reduction in net protein increase by SRB assay relative to control

Malme-3M = assay: cells; settings: Homo sapiens
Description: Growth inhibition of human MALME-3M cells assessed as drug level required for 50% reduction in net protein increase by SRB assay relative to control

NCI-H522 [13] = assay: Cytotoxicity against human NCI-H522 cells by SRB assay; settings: read-out: LC50 (the source's name)
PC-3 [14] = assay: Cytotoxicity against human PC3 cells by SRB assay; settings: read-out: LC50 (the source's name)
cells [15] = settings: Homo sapiens, Hs-578T
Description: Growth inhibition of human Hs 578T cells assessed as drug level required for 50% reduction in net protein increase by SRB assay relative to control

A498 = assay: cells; settings: Homo sapiens
Description: Growth inhibition of human A498 cells assessed as cell growth at 10 uM by SRB assay

HCC 2998 = assay: cells; settings: Homo sapiens
Description: Growth inhibition of human HCC2998 cells assessed as cell growth at 10 uM by SRB assay

ACHN = assay: cells; settings: Homo sapiens
Description: Growth inhibition of human ACHN cells assessed as drug level required for 50% reduction in net protein increase by SRB assay relative to control

SR = assay: cells; settings: Homo sapiens
Description: Growth inhibition of human SR cells assessed as cell growth at 10 uM by SRB assay

MCF7 [16] = assay: Cytotoxicity against human MCF7 cells by SRB assay; settings: read-out: LC50 (the source's name)
SK-OV-3 = assay: cells; settings: Homo sapiens
Description: Growth inhibition of human SKOV3 cells assessed as drug level required for 50% reduction in net protein increase by SRB assay relative to control

OVCAR-8 [17] = assay: cells; settings: Homo sapiens; remark: listed apart in the source
Description: Growth inhibition of human OVCAR8 cells assessed as drug level required for 50% reduction in net protein increase by SRB assay relative to control

NCI-H522 [18] = assay: cells; settings: Homo sapiens; remark: listed apart in the source
Description: Growth inhibition of human NCI-H522 cells assessed as drug level required for 50% reduction in net protein increase by SRB assay relative to control

UACC-257 [19] = assay: cells; settings: Homo sapiens
Description: Growth inhibition of human UACC257 cells assessed as drug level required for 50% reduction in net protein increase by SRB assay relative to control

LOX IMVI [20] = assay: cells; settings: Homo sapiens
Description: Growth inhibition of human LOXIMVI cells assessed as cell growth at 10 uM by SRB assay

MDA-MB-435 [21] = assay: cells; settings: Homo sapiens
Description: Growth inhibition of human MDA-MB-435 cells assessed as drug level required for 50% reduction in net protein increase by SRB assay relative to control

SNB-75 [22] = assay: cells; settings: Homo sapiens
Description: Growth inhibition of human SNB75 cells assessed as drug level required for 50% reduction in net protein increase by SRB assay relative to control

SNB-75 [23] = assay: cells; settings: Homo sapiens; remark: listed apart in the source
Description: Growth inhibition of human SNB75 cells assessed as cell growth at 10 uM by SRB assay

TK-10 [24] = assay: cells; settings: Homo sapiens; remark: listed apart in the source
Description: Growth inhibition of human TK10 cells assessed as cell growth at 10 uM by SRB assay

K562 [25] = assay: cells; settings: Homo sapiens
Description: Growth inhibition of human K562 cells assessed as cell growth at 10 uM by SRB assay

SK-MEL-2 = assay: Cytotoxicity against human SK-MEL-2 cells by SRB assay; settings: read-out: LC50 (the source's name)
K562 [26] = assay: cells; settings: Homo sapiens; remark: listed apart in the source
Description: Growth inhibition of human K562 cells assessed as drug level required for 50% reduction in net protein increase by SRB assay relative to control

LOX IMVI [27] = assay: cells; settings: Homo sapiens; remark: listed apart in the source
Description: Growth inhibition of human LOXIMVI cells assessed as drug level required for 50% reduction in net protein increase by SRB assay relative to control

CCRF-CEM [28] = assay: cells; settings: Homo sapiens
Description: Growth inhibition of human CCRF-CEM cells assessed as cell growth at 10 uM by SRB assay

SK-MEL-28 [29] = assay: Cytotoxicity against human SK-MEL-28 cells by SRB assay; settings: read-out: LC50 (the source's name)
KM12 = assay: Cytotoxicity against human KM12 cells by SRB assay; settings: read-out: LC50 (the source's name)
HCT-15 = assay: cells; settings: Homo sapiens
Description: Growth inhibition of human HCT15 cells assessed as drug level required for 50% reduction in net protein increase by SRB assay relative to control

DU-145 = assay: Cytotoxicity against human DU145 cells by SRB assay; settings: read-out: LC50 (the source's name)
MOLT-4 [30] = assay: cells; settings: Homo sapiens
Description: Growth inhibition of human MOLT4 cells assessed as drug level required for 50% reduction in net protein increase by SRB assay relative to control

MDA-MB-231 = assay: cells; settings: Homo sapiens
Description: Growth inhibition of human MDA-MB-231 cells assessed as drug level required for 50% reduction in net protein increase by SRB assay relative to control

SNB-19 = assay: cells; settings: Homo sapiens
Description: Growth inhibition of human SNB19 cells assessed as cell growth at 10 uM by SRB assay

cells [31] = settings: Homo sapiens, CAKI
Description: Growth inhibition of human CAKI cells assessed as cell growth at 10 uM by SRB assay

RXF 393 [32] = assay: Cytotoxicity against human RFX393 cells by SRB assay; settings: read-out: LC50 (the source's name)
786-0 [33] = assay: cells; settings: Homo sapiens, read-out: LC50 (the source's name)
Description: Cytotoxicity against human 786-0 cells by SRB assay

RXF 393 [34] = assay: cells; settings: Homo sapiens
Description: Growth inhibition of human RFX393 cells assessed as cell growth at 10 uM by SRB assay

MCF7 [35] = assay: cells; settings: Homo sapiens
Description: Growth inhibition of human MCF7 cells assessed as cell growth at 10 uM by SRB assay

MOLT-4 [36] = assay: Cytotoxicity against human MOLT4 cells by SRB assay; settings: read-out: LC50 (the source's name)
A549 = assay: cells; settings: Homo sapiens
Description: Growth inhibition of human A549 cells assessed as drug level required for 50% reduction in net protein increase by SRB assay relative to control

UACC-257 [37] = assay: cells; settings: Homo sapiens; remark: listed apart in the source
Description: Growth inhibition of human UACC257 cells assessed as cell growth at 10 uM by SRB assay

[38] = Cytotoxicity against human CAKI cells by SRB assay; settings: read-out: LC50 (the source's name)
SF-295 [39] = assay: Cytotoxicity against human SF295 cells by SRB assay; settings: read-out: LC50 (the source's name)
NCI/ADR-RES = assay: cells; settings: Homo sapiens
Description: Growth inhibition of human NCI/ADR-RES cells assessed as cell growth at 10 uM by SRB assay

MCF7 [40] = assay: cells; settings: Homo sapiens; remark: listed apart in the source
Description: Growth inhibition of human MCF7 cells assessed as drug level required for 50% reduction in net protein increase by SRB assay relative to control

HT-29 = assay: cells; settings: Homo sapiens
Description: Growth inhibition of human HT-29 cells assessed as drug level required for 50% reduction in net protein increase by SRB assay relative to control

NCI-H460 = assay: Cytotoxicity against human NCI-H460 cells by SRB assay; settings: read-out: LC50 (the source's name)
MDA-MB-435 [41] = assay: cells; settings: Homo sapiens; remark: listed apart in the source
Description: Growth inhibition of human MDA-MB-435 cells assessed as cell growth at 10 uM by SRB assay

SK-MEL-28 [42] = assay: cells; settings: Homo sapiens
Description: Growth inhibition of human SK-MEL-28 cells assessed as drug level required for 50% reduction in net protein increase by SRB assay relative to control

CCRF-CEM [43] = assay: cells; settings: Homo sapiens; remark: listed apart in the source
Description: Growth inhibition of human CCRF-CEM cells assessed as drug level required for 50% reduction in net protein increase by SRB assay relative to control

NCI-H226 = assay: cells; settings: Homo sapiens
Description: Growth inhibition of human NCI-H226 cells assessed as cell growth at 10 uM by SRB assay

CCCCCCCC[N+](C)(CCCCCCCC)CCCCCCCC.O=S(=O)([N-]S(=O)(=O)C(F)(F)F)C(F)(F)F
GI50 (OVCAR-5): 1240 nM
GI50 (HOP-62): 787 nM
growth at 10 µM (NCI-H522 [1]): -99.9%
GI50 (IGROV-1 [2]): 388 nM
growth at 10 µM (786-0 [3]): -95.8%
GI50 (EKVX): 215 nM
GI50 (SK-MEL-5): 177 nM
CC50 (cells [4]): > 100000 nM
GI50 (SN12C): 367 nM
GI50 (M14): 453 nM
growth at 10 µM (OVCAR-8 [5]): -100%
CC50 (MDA-MB-468): 2110 nM
CC50 (NCI-H23 [6]): 6330 nM
GI50 (U-251): 334 nM
growth at 10 µM (HOP-92): -70%
CC50 (IGROV-1 [7]): > 100000 nM
growth at 10 µM (SF-295 [8]): -94.8%
growth at 10 µM (NCI-H23 [9]): -97%
GI50 (BT-549): 421 nM
growth at 10 µM (T47D): -73.3%
CC50 (SNB-75 [10]): 3770 nM
GI50 (PC-3 [11]): 282 nM
GI50 (TK-10 [12]): 503 nM
GI50 (Malme-3M): 290 nM
CC50 (NCI-H522 [13]): 5400 nM
CC50 (PC-3 [14]): 3990 nM
GI50 (cells [15]): 417 nM
growth at 10 µM (A498): -100%
growth at 10 µM (HCC 2998): -98%
GI50 (ACHN): 630 nM
growth at 10 µM (SR): 28.1%
CC50 (MCF7 [16]): 4020 nM
GI50 (SK-OV-3): 565 nM
GI50 (OVCAR-8 [17]): 468 nM
GI50 (NCI-H522 [18]): 287 nM
GI50 (UACC-257 [19]): 411 nM
growth at 10 µM (LOX IMVI [20]): -74.7%
GI50 (MDA-MB-435 [21]): 335 nM
GI50 (SNB-75 [22]): 336 nM
growth at 10 µM (SNB-75 [23]): -100%
growth at 10 µM (TK-10 [24]): -100%
growth at 10 µM (K562 [25]): 86.9%
CC50 (SK-MEL-2): > 100000 nM
GI50 (K562 [26]): 186 nM
GI50 (LOX IMVI [27]): 192 nM
growth at 10 µM (CCRF-CEM [28]): 85.7%
CC50 (SK-MEL-28 [29]): 7180 nM
CC50 (KM12): 5310 nM
GI50 (HCT-15): 993 nM
CC50 (DU-145): 4440 nM
GI50 (MOLT-4 [30]): 324 nM
GI50 (MDA-MB-231): 345 nM
growth at 10 µM (SNB-19): -89.6%
growth at 10 µM (cells [31]): -98.6%
CC50 (RXF 393 [32]): 5750 nM
CC50 (786-0 [33]): 5020 nM
growth at 10 µM (RXF 393 [34]): -100%
growth at 10 µM (MCF7 [35]): -100%
CC50 (MOLT-4 [36]): 4890 nM
GI50 (A549): 1900 nM
growth at 10 µM (UACC-257 [37]): -95.2%
CC50 [38]: 3280 nM
CC50 (SF-295 [39]): 4570 nM
growth at 10 µM (NCI/ADR-RES): -100%
GI50 (MCF7 [40]): 317 nM
GI50 (HT-29): 305 nM
CC50 (NCI-H460): 4100 nM
growth at 10 µM (MDA-MB-435 [41]): -90.8%
GI50 (SK-MEL-28 [42]): 710 nM
GI50 (CCRF-CEM [43]): 190 nM
growth at 10 µM (NCI-H226): -86.2%

CCCCCCCCCCCCCCCCCCPCCCCCCCCCCCCCC (configuration not stated) [MONO(OCTADECYL(TETRADECYL)PHOSPHONIUM) MONO(HEXAFLUOROPHOSPHATE(V)) MONO(TETRAFLUOROBORATE)]
GI50 (OVCAR-5): 337 nM
GI50 (HOP-62): 399 nM
growth at 10 µM (NCI-H522 [1]): -50.9%
GI50 (IGROV-1 [2]): 316 nM
growth at 10 µM (786-0 [3]): -74%
GI50 (EKVX): 206 nM
GI50 (SK-MEL-5): 74 nM
CC50 (cells [4]): > 100000 nM
GI50 (SN12C): 62 nM
GI50 (M14): 87 nM
growth at 10 µM (OVCAR-8 [5]): -18.1%
CC50 (MDA-MB-468): > 100000 nM
CC50 (NCI-H23 [6]): > 100000 nM
GI50 (U-251): 37 nM
growth at 10 µM (HOP-92): -55.5%
CC50 (IGROV-1 [7]): > 100000 nM
growth at 10 µM (SF-295 [8]): -50%
growth at 10 µM (NCI-H23 [9]): -61%
GI50 (BT-549): 94 nM
growth at 10 µM (T47D): -38.5%
CC50 (SNB-75 [10]): > 100000 nM
GI50 (PC-3 [11]): 44 nM
GI50 (TK-10 [12]): 234 nM
GI50 (Malme-3M): 34 nM
CC50 (NCI-H522 [13]): > 100000 nM
CC50 (PC-3 [14]): > 100000 nM
GI50 (cells [15]): 84 nM
growth at 10 µM (A498): -75.6%
growth at 10 µM (HCC 2998): -76.4%
GI50 (ACHN): 244 nM
growth at 10 µM (SR): 12.1%
CC50 (MCF7 [16]): > 100000 nM
GI50 (SK-OV-3): 331 nM
GI50 (OVCAR-8 [17]): 229 nM
GI50 (NCI-H522 [18]): 158 nM
GI50 (UACC-257 [19]): 272 nM
growth at 10 µM (LOX IMVI [20]): 0.43%
GI50 (MDA-MB-435 [21]): 50 nM
GI50 (SNB-75 [22]): 223 nM
growth at 10 µM (SNB-75 [23]): -85.2%
growth at 10 µM (TK-10 [24]): -75%
growth at 10 µM (K562 [25]): 16.6%
CC50 (SK-MEL-2): > 100000 nM
GI50 (K562 [26]): 38 nM
GI50 (LOX IMVI [27]): 50 nM
growth at 10 µM (CCRF-CEM [28]): 23.3%
CC50 (SK-MEL-28 [29]): > 100000 nM
CC50 (KM12): > 100000 nM
GI50 (HCT-15): 339 nM
CC50 (DU-145): > 100000 nM
GI50 (MOLT-4 [30]): 90 nM
GI50 (MDA-MB-231): 107 nM
growth at 10 µM (SNB-19): -44.9%
growth at 10 µM (cells [31]): -70.2%
CC50 (RXF 393 [32]): > 100000 nM
CC50 (786-0 [33]): > 100000 nM
growth at 10 µM (RXF 393 [34]): -16.9%
growth at 10 µM (MCF7 [35]): -40.8%
CC50 (MOLT-4 [36]): > 100000 nM
GI50 (A549): 391 nM
growth at 10 µM (UACC-257 [37]): -59%
CC50 [38]: > 100000 nM
CC50 (SF-295 [39]): > 100000 nM
growth at 10 µM (NCI/ADR-RES): -77.3%
GI50 (MCF7 [40]): 253 nM
GI50 (HT-29): 61 nM
CC50 (NCI-H460): > 100000 nM
growth at 10 µM (MDA-MB-435 [41]): -59.3%
GI50 (SK-MEL-28 [42]): 376 nM
GI50 (CCRF-CEM [43]): 34 nM
growth at 10 µM (NCI-H226): -68.1%
